Reference: US8580829B2 (Boehringer Ingelheim International GmbH, priority 2010, dated 2013)
pIC50: −log10 of the molar value. Where two headings read alike, the source gives them in different places.

How the values were obtained:
[1] = target: T1, recombinant human FLAP protein (Homo sapiens, UniProt P20292); experiment: FLAP binding assay (Scintillation Proximity Assay, displacement of [125I]L-691,831); details: recombinant human FLAP membranes, [125I]L-691,831 probe; read-out: FLAP SPA IC50
T1 construct: made in house; host or cells: Sf9 insect cells (100,000 x g membrane fraction)
T1 sequence (P20292 1-161): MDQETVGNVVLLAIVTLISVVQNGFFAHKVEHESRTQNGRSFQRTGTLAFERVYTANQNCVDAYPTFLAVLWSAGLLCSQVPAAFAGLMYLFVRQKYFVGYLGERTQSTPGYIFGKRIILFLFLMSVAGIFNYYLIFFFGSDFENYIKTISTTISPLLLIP
Procedure, shortened: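 Membranes came from Sf9 insect cells expressing recombinant human FLAP, collected as the 100,000×g pellet in Tris pH 7.5/MgCl2/EDTA buffer. 5 μg membrane protein was coupled to WGA SPA beads for 1 h.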

[2] = tested on: synthesis of LTB4 in human whole blood; experiment: human whole blood LTB4 production inhibition assay; format: cell-based; details: heparinized human whole blood, calcimycin 20 μM, read-out: hWB LTB4 IC50
Procedure, shortened: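 Heparinized human whole blood preincubated with compound 15 min at 37 °C, then stimulated with calcimycin (20 μM final) for 30 min at 37 °C. Plasma LTB4 measured after low-speed centrifugation by antibody-based homogeneous time-resolved fluorescence.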

SMILES	pIC50 [1]	pIC50 ([2]; Homo sapiens)	pIC50 [2]
Nc1ncc(-c2ccc(C3(c4noc(-c5ccc(N6CCS(=O)(=O)CC6)nc5)n4)CCC3)cc2)cn1 [Example 107, 5-[4-(1-{5-[6-(1,1-Dioxo-1λ^6-thiomorpholin-4-yl)-pyridin-3-yl]-1,2,4-oxadiazol-3-yl}-cyclobutyl)-phenyl]-pyrimidin-2-ylamine]	8.85	7.01	
CS(=O)(=O)CCNc1ccc(-c2nc(C3(c4ccc(-c5cnc(N)nc5)cc4)CCC3)no2)cn1 [Example 108, 5-[4-(1-{5-[6-(2-Methanesulfonyl-ethylamino)-pyridin-3-yl]-1,2,4-oxadiazol-3-yl}-cyclobutyl)-phenyl]-pyrimidin-2-ylamine]	8.89	6.96	
CS(=O)(=O)N1CCN(c2ccc(-c3nc(C4(c5ccc(-c6cnc(N)nc6)cc5)CCC4)no3)cn2)CC1 [Example 109, 5-[4-(1-{5-[6-(4-Methanesulfonyl-piperazin-1-yl)-pyridin-3-yl]-1,2,4-oxadiazol-3-yl}-cyclobutyl)-phenyl]-pyrimidin-2-ylamine]	8.89	7.01	
CS(=O)(=O)C1CCN(c2ccc(-c3nc(C4(c5ccc(-c6cnc(N)nc6)cc5)CCC4)no3)cn2)C1 (stereo not drawn) [Example 110, 5-[4-(1-{5-[6-(3-Methanesulfonyl-pyrrolidin-1-yl)-pyridin-3-yl]-1,2,4-oxadiazol-3-yl}-cyclobutyl)-phenyl]-pyrimidin-2-ylamine]	9.04	6.96	
COCCNc1ccc(-c2nc(C3(c4ccc(-c5cnc(N)nc5)cc4)CCC3)no2)nn1 [Example 111, [6-(3-{1-[4-(2-amino-pyrimidin-5-yl)-phenyl]-cyclobutyl}-1,2,4-oxadiazol-5-yl)-pyridazin-3-yl]-(2-methoxy-ethyl)-amine]	8.92	7.49	
Nc1ncc(-c2ccc(C3(c4noc(-c5ccc(NCCO)nn5)n4)CCC3)cc2)cn1 [Example 112, 2-[6-(3-{1-[4-(2-Amino-pyrimidin-5-yl)-phenyl]-cyclobutyl}-1,2,4-oxadiazol-5-yl)-pyridazin-3-ylamino]-ethanol]	8.85	6.12	
CN(CCO)c1ccc(-c2nc(C3(c4ccc(-c5cnc(N)nc5)cc4)CCC3)no2)nn1 [Example 113, 2-{[6-(3-{1-[4-(2-Amino-pyrimidin-5-yl)-phenyl]-cyclobutyl}-1,2,4-oxadiazol-5-yl)-pyridazin-3-yl]-methyl-amino}-ethanol]	8.80	7.00	
CC(C)(O)CNc1ccc(-c2nc(C3(c4ccc(-c5cnc(N)nc5)cc4)CCC3)no2)nn1 [Example 114, 1-[6-(3-{1-[4-(2-Amino-pyrimidin-5-yl)-phenyl]-cyclobutyl}-1,2,4-oxadiazol-5-yl)-pyridazin-3-ylamino]-2-methyl-propan-2-ol]	8.59	6.54	
Nc1ncc(-c2ccc(C3(c4noc(-c5ccc(NCCN6CCOCC6)nn5)n4)CCC3)cc2)cn1 [Example 115, [6-(3-{1-[4-(2-Amino-pyrimidin-5-yl)-phenyl]-cyclobutyl}-1,2,4-oxadiazol-5-yl)-pyridazin-3-yl]-(2-morpholin-4-yl-ethyl)-amine]	8.48	6.85	
Nc1ncc(-c2ccc(C3(c4noc(-c5ccc(N6CCNCC6)nc5)n4)CCC3)cc2)cn1 [Example 116, 5-(4-{1-[5-(6-piperazin-1-yl-pyridin-3-yl)-1,2,4-oxadiazol-3-yl]-cyclobutyl}-phenyl)-pyrimidin-2-ylamine]	8.74	6.82	
Cn1cc(-c2nc(C3(c4ccc(-c5cnc(N)nc5)cc4F)CCC3)no2)cn1 [Example 117, 5-(3-Fluoro-4-{1-[5-(1-methyl-1H-pyrazol-4-yl)-1,2,4-oxadiazol-3-yl]-cyclobutyl}-phenyl)-pyrimidin-2-ylamine]	8.59	6.85	
CNC(=O)Cn1cccc(-c2nc(C3(c4ccc(-c5cnc(N)nc5)cc4)CCC3)no2)c1=O [Example 118, 2-[3-(3-{1-[4-(2-amino-pyrimidin-5-yl)-phenyl]-cyclobutyl}-1,2,4-oxadiazol-5-yl)-2-oxo-2H-pyridin-1-yl]-N-methyl-acetamide]	7.68	5.77	
CN(C)C(=O)Cn1cccc(-c2nc(C3(c4ccc(-c5cnc(N)nc5)cc4)CCC3)no2)c1=O [Example 119, 2-[3-(3-{1-[4-(2-Amino-pyrimidin-5-yl)-phenyl]-cyclobutyl}-1,2,4-oxadiazol-5-yl)-2-oxo-2H-pyridin-1-yl]-N,N-dimethyl-acetamide]	7.40	6.10	
CC(C)(O)CNc1cnc(-c2nc(C3(c4ccc(-c5cnc(N)nc5)cc4)CCC3)no2)cn1 [Example 120, 1-[5-(3-{1-[4-(2-Amino-pyrimidin-5-yl)-phenyl]-cyclobutyl}-1,2,4-oxadiazol-5-yl)-pyrazin-2-ylamino]-2-methyl-propan-2-ol]	8.04	6.13	
CC(C)(CO)Nc1cnc(-c2nc(C3(c4ccc(-c5cnc(N)nc5)cc4)CCC3)no2)cn1 [Example 121, 2-[5-(3-{1-[4-(2-Amino-pyrimidin-5-yl)-phenyl]-cyclobutyl}-1,2,4-oxadiazol-5-yl)-pyrazin-2-ylamino]-2-methyl-propan-1-ol]	8.31	6.35	
Cn1cc(-c2nc(C3(c4ccc(-c5cnc(N)nc5)cc4)CC(F)(F)C3)no2)cn1 [Example 122, 5-(4-{3,3-Difluoro-1-[5-(1-methyl-1H-pyrazol-4-yl)-1,2,4-oxadiazol-3-yl]-cyclobutyl}-phenyl)-pyrimidin-2-ylamine]	7.85	6.44	
Cn1cc(-c2nc(C3(c4ccc(-c5cnc(N)nc5)cc4)CC(C)(C)C3)no2)cn1 [Example 123, 5-(4-{3,3-Dimethyl-1-[5-(1-methyl-1H-pyrazol-4-yl)-1,2,4-oxadiazol-3-yl]-cyclobutyl}-phenyl)-pyrimidin-2-ylamine]	7.46	5.82	
Nc1ncc(-c2ccc(C3(c4noc(-c5cnc(N6CCNCC6)cn5)n4)CCC3)cc2)cn1 [Example 124, 5-(4-{1-[5-(3,4,5,6-Tetrahydro-1H-1,2′-bipyrazinyl-5′-yl)-1,2,4-oxadiazol-3-yl]-cyclobutyl}-phenyl)-pyrimidin-2-ylamine]	8.46		< 5.30
COC(=O)[C@H]1CN(c2cnc(-c3nc(C4(c5ccc(-c6cnc(N)nc6)cc5)CCC4)no3)cn2)CCN1 [Example 125, (R)-5′-(3-{1-[4-(2-Amino-pyrimidin-5-yl)-phenyl]-cyclobutyl}-1,2,4-oxadiazol-5-yl)-3,4,5,6-tetrahydro-2H-1,2′-bipyrazinyl-3-carboxylic acid methyl ester]	8.30		< 5.30
COC(=O)[C@@H]1CN(c2cnc(-c3nc(C4(c5ccc(-c6cnc(N)nc6)cc5)CCC4)no3)cn2)CCN1 [Example 126, (S)-5′-(3-{1-[4-(2-Amino-pyrimidin-5-yl)-phenyl]-cyclobutyl}-1,2,4-oxadiazol-5-yl)-3,4,5,6-tetrahydro-2H-1,2′-bipyrazinyl-3-carboxylic acid methyl ester]	8.24		< 5.30
Nc1ncc(-c2ccc(C3(c4noc(-c5cnn(CC(=O)N6CCCCC6)c5)n4)CCC3)cc2)cn1 [Example 127, 2-[4-(3-{1-[4-(2-Amino-pyrimidin-5-yl)-phenyl]-cyclobutyl}-1,2,4-oxadiazol-5-yl)-pyrazol-1-yl]-1-piperidin-1-yl-ethanone]	8.49	6.92	
CN(C)C(=O)C(C)(C)n1cc(-c2nc(C3(c4ccc(-c5cnc(N)nc5)cc4)CCC3)no2)cn1 [Example 128, 2-[4-(3-{1-[4-(2-amino-pyrimidin-5-yl)-phenyl]-cyclobutyl}-1,2,4-oxadiazol-5-yl)-pyrazol-1-yl]-N,N-dimethyl-isobutyramide]	8.17	6.74	
CN(C)C(=O)C(C)(C)Cn1cc(-c2nc(C3(c4ccc(-c5cnc(N)nc5)cc4)CCC3)no2)cn1 [Example 129, 3-[4-(3-{1-[4-(2-Amino-pyrimidin-5-yl)-phenyl]-cyclobutyl}-1,2,4-oxadiazol-5-yl)-pyrazol-1-yl]-2,2,N,N-tetramethyl-propionamide]	8.41	6.85	
CCNC(=O)Cn1cc(-c2nc(C3(c4ccc(-c5cnc(N)nc5)cc4)CCC3)no2)cn1 [Example 130, 2-[4-(3-{1-[4-(2-Amino-pyrimidin-5-yl)-phenyl]-cyclobutyl}-1,2,4-oxadiazol-5-yl)-pyrazol-1-yl]-N-ethyl-acetamide]	8.82	7.12	
CCN(CC)C(=O)Cn1cc(-c2nc(C3(c4ccc(-c5cnc(N)nc5)cc4)CCC3)no2)cn1 [Example 131, 2-[4-(3-{1-[4-(2-Amino-pyrimidin-5-yl)-phenyl]-cyclobutyl]-1,2,4-oxadiazol-5-yl)-pyrazol-1-yl]-N,N-diethyl-acetamide]	8.41	7.06	
Nc1ncc(-c2ccc(C3(c4noc(-c5cnn(CC(=O)NC6CC6)c5)n4)CCC3)cc2)cn1 [Example 132, 2-[4-(3-{1-[4-(2-Amino-pyrimidin-5-yl)-phenyl]-cyclobutyl}-1,2,4-oxadiazol-5-yl)-pyrazol-1-yl]-N-cyclopropyl-acetamide]	8.55	7.16	
CC(C(=O)N(C)C)n1cc(-c2nc(C3(c4ccc(-c5cnc(N)nc5)cc4)CCC3)no2)cn1 (stereo not drawn) [Example 133, 2-[4-(3-{1-[4-(2-Amino-pyrimidin-5-yl)-phenyl]-cyclobutyl}-1,2,4-oxadiazol-5-yl)-pyrazol-1-yl]-N,N-dimethyl-propionamide]	8.37	7.14	
